61 molecules from ChEMBL document CHEMBL5360534, “Synthetic α-glucosidase inhibitors as promising anti-diabetic agents: Recent developments and future challenges” (Eur J Med Chem, 2023) can be followed below.

Molecules are shown by their SMILES.

Assay [1] addresses T1, Alpha-glucosidase (Saccharomyces cerevisiae S288c, UniProt P53341+P38158+P07265). The assay can be described thus: Inhibition of Saccharomyces cerevisiae alpha-glucosidase. Type of assay: protein assay.
Assay [2] concerns the target T1, Alpha-glucosidase. The assay can be described thus: Inhibition of Saccharomyces cerevisiae alpha-glucosidase using p-nitrophenyl-alpha-D-glucopyranoside as substrate preincubated for 15 mins followed by substrate addition and measured after 30 mins by spectrophotometric analysis. It is filed as protein assay.
Assay [3] addresses T1, Alpha-glucosidase. The assay can be described thus: Inhibition of Saccharomyces cerevisiae alpha-glucosidase using p-nitrophenyl-alpha-D-glucopyranoside as substrate preincubated for 5 mins followed by alpha-glucosidase addition and measured after 15 mins by UV-visible spectrophotometric analysis. It is filed as protein assay.
Assay [4] is described as follows: Inhibition of Saccharomyces cerevisiae alpha-glucosidase type I using p-nitrophenyl-alpha-D-glucopyranoside as substrate preincubated for 10 mins followed by substrate addition and measured after 30 mins by spectrophotometric analysis.
Assay [5] in a line: Inhibition of alpha-glucosidase (unknown origin). More on the design: species or system Homo sapiens.
The target in assay [6] is T1, Alpha-glucosidase. The assay can be described thus: Inhibition of Saccharomyces cerevisiae alpha-glucosidase using pNPG as substrate preincubated for 10 mins followed by substrate addition and measured after 20 mins by spectrophotometric analysis. It is filed as protein assay.
Assay [7] concerns the target T1, Alpha-glucosidase. The assay can be described thus: Inhibition of Saccharomyces cerevisiae alpha-glucosidase using p-nitrophenyl glucopyranoside as substrate preincubated for 10 mins followed by substrate addition and measured after 20 mins by spectrophotometric analysis. It is filed as protein assay.

Turning to `Cc1cc2nc(NC(=O)CN3C(=O)S/C(=C\c4ccc(Cl)cc4)C3=O)sc2cc1C`, on Alpha-glucosidase [1], the IC50 was determined as 29.91 µM.
As for `CC(=O)CC(c1ccc(Br)cc1)C(C(=O)Nc1ccccn1)C(=O)Nc1ccccn1` (stereo unspecified), the IC50 at Alpha-glucosidase [2] was 12.8 µM.
`O=C(NNS(=O)(=O)c1cccc(Cl)c1)c1cc2cc(F)ccc2[nH]1` gave an IC50 on Alpha-glucosidase [3] of 7.4 µM.
In assay [4], `O=c1c2ccccc2n2ncnc2n1OCc1ccccc1` gave an IC50 of 12.7 µM.
`OCCSc1nnc(COc2ccccc2)n1/N=C/c1ccc(O)cc1` yielded an IC50 in assay [5] of 1.49 µM.
For the molecule `O=C(NNS(=O)(=O)c1cccc(F)c1)c1cc2cc(F)ccc2[nH]1`, at Alpha-glucosidase [3], the IC50 came out at 3.2 µM.
With `O=C(NNS(=O)(=O)c1ccccc1Cl)c1ccc(-c2nnc(-c3ccc([N+](=O)[O-])cc3)o2)cc1`, in assay [5], the IC50 amounted to 1.1 µM.
`Cc1ccoc1-c1cccc(/C=N/NC(=O)c2ccc(-c3cc(=O)c4cc(O)ccc4o3)cc2)c1` came in with a half-maximal inhibitory concentration (IC50) in assay [5] of 1.02 µM.
In assay [5], `CCOP(=O)(OCC)C(Nc1ccc(C(F)(F)F)cc1I)c1cc(OC)c(O)c(OC)c1` (stereo unspecified) gave an IC50 of 94.5 µM.
The same measure, in the same setting: for `CN(C)c1ccc(-c2ccc(/C=N/n3c(COc4ccccc4)nnc3SCCO)cc2)cc1` the value was 1.49 µM.
Consider `CS(=O)(=O)n1c(=O)c2ccccc2n2ncnc12`, for which the IC50 in assay [4] worked out at 83.9 µM.
On to `O=C1Nc2ccccc2C1(c1cn(Cc2ccccc2F)c2ccccc12)c1cn(Cc2ccccc2F)c2ccccc12`, for which the IC50 against Alpha-glucosidase [2] stood at 5.98 µM.
In turn, `O=C(c1ccccc1)c1ccc2nc(-c3ccc(O)cc3)[nH]c2c1` showed an IC50 against Alpha-glucosidase [3] of 11.02 µM.
For the molecule `C/C=C/n1c(=O)c2ccccc2n2ncnc12`, the IC50 in assay [4] turned out to be 45.6 µM.
The molecule `O=C1Cc2ccccc2C(O)C1C(c1ccc(OCc2cn(Cc3ccccc3Cl)nn2)cc1)c1c(O)c2ccccc2oc1=O` (stereo unspecified) gave an IC50 at Alpha-glucosidase [6] of 13 µM.
On to `COc1ccc(C2=NOC(c3ccccc3)N2c2ccc(OC)cc2)cc1` (stereo unspecified), for which, at Alpha-glucosidase [6], the IC50 came to 295 µM.
Turning to `COc1cccc(/C=C/c2nc(-c3ccccc3)c3cc(Cl)ccc3n2)c1OS(=O)(=O)c1ccc([N+](=O)[O-])cc1`, in assay [5], 28 µM corresponded to half-maximal inhibition (IC50).
For `COc1cc(OC)c(Br)c(-c2nc3ccc(Br)cc3[nH]2)c1`, in assay [5], half-maximal inhibition (IC50) required 8.15 µM.
`CCOC(=O)c1c(-c2ccc(/C=C3/SC(=S)NC3=O)cc2)c2ccccc2n1Cc1ccc(Cl)cc1` had an IC50 in assay [5] of 0.51 µM.
Consider `Clc1ccc(/C=N/Nc2nnc(-c3ccccc3)c(-c3ccccc3)n2)cc1`, for which the IC50 at Alpha-glucosidase [1] was 13.09 µM.
In assay [5], `O=C(CC(c1cc(Cl)ccc1Cl)c1c[nH]c2ccccc12)c1ccccc1` (stereo unspecified) returned an IC50 of 4.3 µM.
Take `COc1ccc(-c2csc(NC(=O)CSc3nnc(-c4ccc(Br)cc4)c(-c4ccc(Br)cc4)n3)n2)cc1`: the IC50 against Alpha-glucosidase [2] is 2.85 µM.
`OC[C@H]1NC[C@H](O)[C@@H](O)[C@@H]1O` [DUVOGLUSTAT] had an IC50 in assay [5] of 426 µM.
As for `CC(C)Cc1ccc(C(C)c2nnc(SC/C(=N\c3ccc(Cl)c(Cl)c3)c3ccccc3)o2)cc1` (stereo unspecified), the IC50 in assay [5] was found to be 3.05 µM.
Turning to `CCn1cc(C(=O)OCc2ccccc2Br)c(=O)c2cc(F)c(N3CCN(Cc4ccccc4Br)CC3)nc21`, in assay [5], the IC50 stood at 45.8 µM.
Molecule `O=C(CSC(=S)Nc1cccc([N+](=O)[O-])c1)c1cc2ccccc2oc1=O` had an IC50 against Alpha-glucosidase [6] of 85 µM.
Consider `CCn1c(=O)c2ccccc2n2ncnc12`, for which, in assay [4], the 50% inhibitory concentration (IC50) was found to be 28.5 µM.
`CCOC(=O)c1c(-c2ccccc2)nn2c1C=C(c1ccc(O)c(OC)c1)/C2=N/C1CCCCC1` showed a 50% inhibitory concentration (IC50) against Alpha-glucosidase [7] of 95 µM.
In assay [4], `CSn1c(=O)c2ccccc2n2ncnc12` returned an IC50 of 72.3 µM.
`Nc1nnc(-c2cccc3cccc(O)c23)o1`: the IC50 in assay [5] is 0.8 µM.
On the same count and under the same terms, for `Cc1cccc(-n2c(-c3ccc(Cl)cc3)cc(C(=O)Nc3ccncc3)c2C)c1` the value was 118 µM; for `CCOC(=O)c1c(-c2ccc(/C=C3/SC(=O)NC3=O)cc2)c2ccccc2n1Cc1ccc(Cl)cc1`, 3.6 µM.
Molecule `COc1ccc(CCn2c(SCc3cn(Cc4ccc(Br)cc4)nn3)nc3ccccc3c2=O)cc1OC` yielded an IC50 against Alpha-glucosidase [7] of 192.3 µM.
Take `N#Cc1ccc(S(=O)(=O)NNC(=O)c2cc3cc(F)ccc3[nH]2)cc1`: the IC50 at Alpha-glucosidase [3] is 6.2 µM.
Molecule `O=C1C(=O)N(Cc2cn(CN3C(=O)S/C(=C\c4ccco4)C3=O)nn2)c2ccccc21` had an IC50 in assay [5] of 24.7 µM.
On Alpha-glucosidase [7], `O=C(Cn1cc(COc2ccc(-c3nc4ccccc4c(=O)[nH]3)cc2)nn1)Nc1ccccc1` registered a 50% inhibitory concentration (IC50) of 45.3 µM.
As to `O=C(CSc1nc2ccccc2c(=O)n1-c1cccc(Br)c1)c1ccc([N+](=O)[O-])cc1`, the IC50 in assay [5] is 85 µM.
In turn, `CCOC(=O)c1c(-c2ccc(/C=C3/SC(=O)NC3=O)cc2)c2ccccc2n1Cc1ccccc1` showed an IC50 in assay [5] of 5.3 µM.
On Alpha-glucosidase [6], `Fc1ccc(C2=NOC(c3ccccc3)N2c2ccc(F)cc2)cc1` (stereo unspecified) showed an IC50 of 256 µM.
`Cc1ccccc1Cn1cc(COc2ccc(C(c3c(O)c4ccccc4oc3=O)C3C(=O)Cc4ccccc4C3O)cc2)nn1` (stereo unspecified) displayed an IC50 at Alpha-glucosidase [6] of 16.4 µM.
`O=C(N/N=C\c1ccccc1OCCCN1C(=O)c2ccccc2C1=O)c1cc2ccccc2oc1=O` gave an IC50 at Alpha-glucosidase [1] of 85.2 µM.
For the molecule `COc1ccc(-n2c(SCC(=O)N/N=C/c3ccc(Cl)cc3)nc3ccccc3c2=O)cc1`, 610 µM corresponded to half-maximal inhibition in assay [5] (IC50).
Consider `O=[N+]([O-])c1ccc(S(=O)(=O)Oc2ccc(/C=C/c3nc4ccccc4nc3O)cc2)cc1`, for which, in assay [5], it took 32 µM to reach half-maximal inhibition (IC50).
Regarding `O=C(NNS(=O)(=O)c1ccccc1F)c1cc2cc(F)ccc2[nH]1`, on Alpha-glucosidase [3], the IC50 stood at 3.2 µM.
Turning to `O=C(COc1ccc2ccc(=O)oc2c1)N/N=C\c1cc([N+](=O)[O-])ccc1OCCCN1C(=O)c2ccccc2C1=O`, the IC50 against Alpha-glucosidase [1] stood at 94.2 µM.
As to `CCOC(=O)C1=C(C)NC2=C(C(=O)CC(C)(C)C2)C1c1cc(OC)c(OC)cc1Br` (stereo unspecified), in assay [5], 2.31 µM corresponded to half-maximal inhibition (IC50).
Consider `Nc1ccc2c(-c3nc4ccc(Br)c(O)c4s3)cc(=O)oc2c1`, for which the IC50 in assay [5] was 6.32 µM.
The molecule `CCOC(=O)c1c(-c2ccc(/C=C3/SC(=S)NC3=O)cc2)c2ccccc2n1Cc1ccccc1` returned an IC50 in assay [5] of 0.91 µM.
In turn, `COc1cccc2cc(-c3nnc(SCc4cn(CC(=O)NCc5ccc(F)cc5)nn4)o3)oc12` gave an IC50 against Alpha-glucosidase [7] of 40.7 µM.
On to `COc1ccc(/C=N/n2c(COc3ccccc3)nnc2SCCO)cc1`, for which the IC50 in assay [5] was found to be 1.49 µM.
`O=C(NNS(=O)(=O)c1ccc(Br)cc1)c1cc2cc(F)ccc2[nH]1`: at Alpha-glucosidase [3], the IC50 came out at 4.7 µM.
With `OCCN1C[C@H](O)[C@@H](O)[C@H](O)[C@H]1CO` [MIGLITOL], half-maximal inhibition in assay [5] (IC50) was put at 0.39 µM.
The same measure, in the same setting: for `Cc1cc([N+](=O)[O-])ccc1-c1cnc(CC(C)C)s1` the value was 7.17 µM; for `COc1ccc(-c2coc3cc(OCC(=O)c4ccc(Cl)cc4)ccc3c2=O)cc1`, 6.3 µM.
Take `Cc1ccc(-c2cc(-c3ccc(Br)cc3)nc(SCc3ccc(Cl)cc3)n2)cc1`: on Alpha-glucosidase [2], the IC50 was 19.6 µM.
For the molecule `O=C(N/N=C/c1ccc(Cl)cc1)c1cc(-c2ccccc2)[nH]n1`, half-maximal inhibition in assay [5] (IC50) was put at 60.5 µM.
`Nc1c(-c2ccccc2)nc2nc3cc(Cl)c(Cl)cc3n2c1-c1ccccc1`: the IC50 against Alpha-glucosidase [7] came out at 16.4 µM.
Take `Oc1c(Cl)cc(Cl)cc1/C=N/c1nc(-c2ccc(-c3ccccc3)cc2)cs1`: the IC50 in assay [5] was 0.5 µM.
For `Cc1ccc(-c2cc(C(F)(F)F)nn2-c2ccc(S(=O)(=O)NC(=O)c3ccc(C)c([N+](=O)[O-])c3)cc2)cc1`, 92.3 µM corresponded to half-maximal inhibition in assay [5] (IC50).
Molecule `CC(C)(C)c1ccc(Cn2cc(CCS3=Nc4cc(Cl)ccc4C3)nn2)cc1` (stereo unspecified) returned an IC50 against Alpha-glucosidase [2] of 20.7 µM.
As for `OC[C@H]1CC2C(N=NN2c2ccccc2)[C@@H](O)C1O` (stereo partly specified), the midpoint of inhibition in assay [5], the IC50, lay at 74 µM.

The term IC50 denotes the concentration that inhibits the measured activity by half.
